In US12024707B2, “Methods and compositions for modulating lncRNAs and methods of treatment based on lncRNA expression” (Washington University, priority 2020, dated 2024):
Where “and” joins values, the source holds several entries; their conditions need not be identical. Identical values can stand only once. Counter-ions that a name gives are not always drawn. Like-named read-outs stand apart in the source and are kept apart here. Starred links: 1 amine or outer side, 2 acyl side, 3 side chain; linkers in the order of their positions; H or OH if unused. Positions of bridges follow the written chain, without caps; N, C: chain ends. Non-standard residues stand in square brackets, D forms with d. Residues, ends and D or L forms follow the SMILES beside them. Chains are numbered I, II in the order given. Actinocin(9to1) = Cc1c2oc3c(C)ccc(C(=O)[*:1])c3nc-2c(C(=O)[*:2])c(N)c1=O; NMeV = CN[C@H](C(=O)O)C(C)C; Sar = CNCC(=O)O

Test system: HT29 RAMS11 overexpressing cells
Assay: High-throughput viability assay (resazurin), 119 FDA-approved anticancer drugs, RAMS11 overexpressing cells (Clone1, Clone2)
[1] = OE1 (RAMS11 overexpression clone 1), 0.1 uM drug, 72 h, vs empty vector control
[2] = OE1 (RAMS11 overexpression clone 1), 1 uM drug, 72 h, vs empty vector control
[3] = OE1 (RAMS11 overexpression clone 1), 10 uM drug, 72 h, vs empty vector control
[4] = OE2 (RAMS11 overexpression clone 2), 0.1 uM drug, 72 h, vs empty vector control
[5] = OE2 (RAMS11 overexpression clone 2), 1 uM drug, 72 h, vs empty vector control
[6] = OE2 (RAMS11 overexpression clone 2), 10 uM drug, 72 h, vs empty vector control

Experimental: The FDA-approved anticancer panel included multiple classes of drugs such as kinase inhibitors, alkylating agents, antineoplastic antibiotics, anthracycline antibiotics, and antineoplastic agents (topoisomerase inhibitors). The HT29 RAMS11 overexpressing and control cells were treated for 72 h to assess cellular viability upon drug treatment (FIG. 14a and TABLE 3). […] Due to 5-FU commonly used to treat mCRC, we further determined if RAMS11 expression altered drug sensitivity in treated cells.
Drugs were diluted in DMSO to 1 mM and the well assignments were rearranged so drugs were confined to the inner 60 wells of 96-well plates. […] The next day serial diluted drug was added to pre-seeded plates in media containing 1% DMSO vehicle, using a Robbins Hydra 96 micro dispenser. Two 96-well plates of cells were used as vehicle controls. The plates were incubated for 3 days. Percent viability was scored by incubating cells for 3 h with resazurin sodium (0.023 mg/mL, Sigma R7017). The reaction was stopped by the addition of SDS (1% final concentration). Fluorescence Ex/Em 540/590 was read in a Biotek Synergy H1 plate reader (Winooski, VT). The fluorescence values for the vehicle plates were averaged and percent viability was determined by the formula: Percent viability=(average vehicle−value)/(average vehicle−average resazurin in media blank)×100. […] Assays were repeated more than three times.

CS(=O)(=O)OCCCCOS(C)(=O)=O [Busulfan]
Viability Fold Change [1]: 1.001
Viability Fold Change [2]: 0.9365
Viability Fold Change [3]: 0.8448
Viability Fold Change [4]: 0.977
Viability Fold Change [5]: 0.9369
Viability Fold Change [6]: 0.871

CO[C@H]1C(=O)[C@]2(C)[C@@H](OC)C[C@H]3OC[C@@]3(OC(C)=O)[C@H]2[C@H](OC(=O)c2ccccc2)[C@]2(O)C[C@H](OC(=O)[C@H](O)[C@@H](NC(=O)OC(C)(C)C)c3ccccc3)C(C)=C1C2(C)C [Cabazitaxel]
Viability Fold Change [1]: 2.975
Viability Fold Change [2]: 3.231
Viability Fold Change [3]: 2.607
Viability Fold Change [4]: 2.745
Viability Fold Change [5]: 2.869
Viability Fold Change [6]: 2.506

COc1cc2nccc(Oc3ccc(NC(=O)C4(C(=O)Nc5ccc(F)cc5)CC4)cc3)c2cc1OC [Cabozantinib]
Viability Fold Change [1]: 0.9713
Viability Fold Change [2]: 1.012
Viability Fold Change [3]: 0.995
Viability Fold Change [4]: 0.9575
Viability Fold Change [5]: 1.037
Viability Fold Change [6]: 0.8731

CCCCCOC(=O)Nc1nc(=O)n([C@@H]2O[C@H](C)[C@@H](O)[C@H]2O)cc1F [Capecitabine]
Viability Fold Change [1]: 1.291
Viability Fold Change [2]: 0.7939
Viability Fold Change [3]: 0.9609
Viability Fold Change [4]: 1.102
Viability Fold Change [5]: 0.8093
Viability Fold Change [6]: 1.166

N.N.O=C([O-])C1(C(=O)[O-])CCC1.[Pt+2] [Carboplatin]
Viability Fold Change [1]: 1.016
Viability Fold Change [2]: 1.047
Viability Fold Change [3]: 1.103
Viability Fold Change [4]: 0.9697
Viability Fold Change [5]: 1.074
Viability Fold Change [6]: 0.9969

CC(C)C[C@H](NC(=O)[C@H](CCc1ccccc1)NC(=O)CN1CCOCC1)C(=O)N[C@@H](Cc1ccccc1)C(=O)N[C@@H](CC(C)C)C(=O)[C@@]1(C)CO1 [Carfilzomib]
Viability Fold Change [1]: 3.32
Viability Fold Change [2]: 2.1
Viability Fold Change [3]: 1.625
Viability Fold Change [4]: 2.675
Viability Fold Change [5]: 1.654
Viability Fold Change [6]: 1.343

O=NN(CCCl)C(=O)NCCCl [Carmustine]
Viability Fold Change [1]: 1.007
Viability Fold Change [2]: 0.9864
Viability Fold Change [3]: 0.8696
Viability Fold Change [4]: 1.005
Viability Fold Change [5]: 1.079
Viability Fold Change [6]: 1.04

Cc1ccc(-c2cc(C(F)(F)F)nn2-c2ccc(S(N)(=O)=O)cc2)cc1 [Celecoxib]
Viability Fold Change [1]: 0.8767
Viability Fold Change [2]: 0.9228
Viability Fold Change [3]: 0.9797
Viability Fold Change [4]: 0.948
Viability Fold Change [5]: 0.9628
Viability Fold Change [6]: 0.9848

Cc1cc(Nc2ncc(Cl)c(Nc3ccccc3S(=O)(=O)C(C)C)n2)c(OC(C)C)cc1C1CCNCC1 [Ceritinib]
Viability Fold Change [1]: 0.9923
Viability Fold Change [2]: 1.015
Viability Fold Change [3]: 0.8304
Viability Fold Change [4]: 1.009
Viability Fold Change [5]: 1.068
Viability Fold Change [6]: 0.8195

O=C(O)CCCc1ccc(N(CCCl)CCCl)cc1 [Chlorambucil]
Viability Fold Change [1]: 0.9531
Viability Fold Change [2]: 1.164
Viability Fold Change [3]: 1.064
Viability Fold Change [4]: 0.9859
Viability Fold Change [5]: 1.144
Viability Fold Change [6]: 0.9173

N.N.[Cl][Pt][Cl] [Cisplatin]
Viability Fold Change [1]: 1.023
Viability Fold Change [2]: 0.9277
Viability Fold Change [3]: 0.9406
Viability Fold Change [4]: 0.9583
Viability Fold Change [5]: 0.9782
Viability Fold Change [6]: 0.9961

Nc1nc(Cl)nc2c1ncn2[C@H]1C[C@H](O)[C@@H](CO)O1 [Cladribine]
Viability Fold Change [1]: 0.8736
Viability Fold Change [2]: 1.321
Viability Fold Change [3]: 1.949
Viability Fold Change [4]: 0.9358
Viability Fold Change [5]: 1.327
Viability Fold Change [6]: 1.86

Nc1nc(Cl)nc2c1ncn2[C@@H]1O[C@H](CO)[C@@H](O)[C@@H]1F [Clofarabine]
Viability Fold Change [1]: 0.9141
Viability Fold Change [2]: 1.361
Viability Fold Change [3]: 2.473
Viability Fold Change [4]: 1.012
Viability Fold Change [5]: 1.421
Viability Fold Change [6]: 2.375

C[C@@H](Oc1cc(-c2cnn(C3CCNCC3)c2)cnc1N)c1c(Cl)ccc(F)c1Cl [Crizotinib]
Viability Fold Change [1]: 0.9595
Viability Fold Change [2]: 1.07
Viability Fold Change [3]: 0.9127
Viability Fold Change [4]: 0.9806
Viability Fold Change [5]: 1.093
Viability Fold Change [6]: 0.8562

O=P1(N(CCCl)CCCl)NCCCO1 (stereo not shown) [Cyclophosphamide]
Viability Fold Change: 0.857 and 0.9632 and 0.9808 and 0.899 and 1.019 and 0.881

Nc1ccn([C@@H]2O[C@H](CO)[C@@H](O)[C@@H]2O)c(=O)n1 [Cytarabine hydrochloride]
Viability Fold Change [1]: 0.9825
Viability Fold Change [2]: 1.254
Viability Fold Change [3]: 1.524
Viability Fold Change [4]: 0.9917
Viability Fold Change [5]: 1.381
Viability Fold Change [6]: 1.876

CN(C)/N=N/c1[nH]cnc1C(N)=O [Dacarbazine]
Viability Fold Change [1]: 1.078
Viability Fold Change [2]: 0.9877
Viability Fold Change [3]: 0.983
Viability Fold Change [4]: 1.084
Viability Fold Change [5]: 1.028
Viability Fold Change [6]: 0.9794

Cc1c2oc3c(C)ccc(C(=O)N[C@@H]4C(=O)N[C@H](C(C)C)C(=O)N5CCC[C@H]5C(=O)N(C)CC(=O)N(C)[C@@H](C(C)C)C(=O)O[C@@H]4C)c3nc-2c(C(=O)N[C@@H]2C(=O)N[C@H](C(C)C)C(=O)N3CCC[C@H]3C(=O)N(C)CC(=O)N(C)[C@@H](C(C)C)C(=O)O[C@@H]2C)c(N)c1=O [Dactinomycin] (I: T[dV]P[Sar][NMeV] / II: T[dV]P[Sar][NMeV]; ester I:1-I:C, II:1-II:C; linker I:N-II:N via Actinocin(9to1))
Viability Fold Change [1]: 1.513
Viability Fold Change [2]: 1.552
Viability Fold Change [3]: 2.719
Viability Fold Change [4]: 1.417
Viability Fold Change [5]: 1.475
Viability Fold Change [6]: 2.498

Cc1nc(Nc2ncc(C(=O)Nc3c(C)cccc3Cl)s2)cc(N2CCN(CCO)CC2)n1 [Dasatinib]
Viability Fold Change [1]: 0.7242
Viability Fold Change [2]: 1.289
Viability Fold Change [3]: 1.518
Viability Fold Change [4]: 0.7852
Viability Fold Change [5]: 1.567
Viability Fold Change [6]: 1.607

Nc1ncn([C@H]2C[C@H](O)[C@@H](CO)O2)c(=O)n1 [Decitabine]
Viability Fold Change [1]: 0.9064
Viability Fold Change [2]: 0.9366
Viability Fold Change [3]: 0.8624
Viability Fold Change [4]: 1.026
Viability Fold Change [5]: 1.091
Viability Fold Change [6]: 1.168

C[C@@H](CN1CC(=O)NC(=O)C1)N1CC(=O)NC(=O)C1 [Dexrazoxane]
Viability Fold Change [1]: 0.9553
Viability Fold Change [2]: 0.9814
Viability Fold Change [3]: 0.8688
Viability Fold Change [4]: 0.9411
Viability Fold Change [5]: 1.049
Viability Fold Change [6]: 1.119

CC(=O)O[C@@]12CO[C@@H]1C[C@H](O)[C@@]1(C)C(=O)[C@H](O)C3=C(C)[C@@H](OC(=O)[C@H](O)[C@@H](NC(=O)OC(C)(C)C)c4ccccc4)C[C@@](O)([C@@H](OC(=O)c4ccccc4)[C@H]21)C3(C)C [Docetaxel]
Viability Fold Change [1]: 2.831
Viability Fold Change [2]: 2.996
Viability Fold Change [3]: 2.894
Viability Fold Change [4]: 2.726
Viability Fold Change [5]: 2.845
Viability Fold Change [6]: 2.869

CNC(=O)c1ccc(N2C(=S)N(c3ccc(C#N)c(C(F)(F)F)c3)C(=O)C2(C)C)cc1F [Enzalutamide]
Viability Fold Change [1]: 1.043
Viability Fold Change [2]: 1.081
Viability Fold Change [3]: 1.088
Viability Fold Change [4]: 1.022
Viability Fold Change [5]: 1.152
Viability Fold Change [6]: 1.1

COc1cccc2c1C(=O)c1c(O)c3c(c(O)c1C2=O)C[C@@](O)(C(=O)CO)C[C@@H]3O[C@H]1C[C@H](N)[C@@H](O)[C@H](C)O1 [Epirubicin hydrochloride]
Viability Fold Change [1]: 1.025
Viability Fold Change [2]: 1.822
Viability Fold Change [3]: 2.19
Viability Fold Change [4]: 1.023
Viability Fold Change [5]: 1.861
Viability Fold Change [6]: 1.999

C#Cc1cccc(Nc2ncnc3cc(OCCOC)c(OCCOC)cc23)c1 [Erlotinib HCl]
Viability Fold Change [1]: 0.9958
Viability Fold Change [2]: 1.169
Viability Fold Change [3]: 1.179
Viability Fold Change [4]: 0.9899
Viability Fold Change [5]: 1.172
Viability Fold Change [6]: 1.215

C[C@]12CC[C@@H]3c4ccc(OC(=O)N(CCCl)CCCl)cc4CC[C@H]3[C@@H]1CC[C@@H]2O [Estramustine]
Viability Fold Change [1]: 0.97
Viability Fold Change [2]: 1.105
Viability Fold Change [3]: 1.034
Viability Fold Change [4]: 0.951
Viability Fold Change [5]: 1.223
Viability Fold Change [6]: 1.025

COc1cc([C@@H]2c3cc4c(cc3C(O[C@@H]3O[C@@H]5CO[C@@H](C)O[C@H]5[C@H](O)[C@H]3O)C3COC(=O)[C@@H]32)OCO4)cc(OC)c1O (stereo partly shown) [Etopside]
Viability Fold Change [1]: 1.144
Viability Fold Change [2]: 1.073
Viability Fold Change [3]: 1.161
Viability Fold Change [4]: 1.13
Viability Fold Change [5]: 0.9992
Viability Fold Change [6]: 1.196

CO[C@H]1C[C@@H]2CC[C@@H](C)[C@@](O)(O2)C(=O)C(=O)N2CCCC[C@H]2C(=O)O[C@H]([C@H](C)C[C@@H]2CC[C@@H](OCCO)[C@H](OC)C2)CC(=O)[C@H](C)/C=C(\C)[C@@H](O)[C@@H](OC)C(=O)[C@H](C)C[C@H](C)/C=C/C=C/C=C/1C [Everolimus]
Viability Fold Change [1]: 0.6419
Viability Fold Change [2]: 0.7474
Viability Fold Change [3]: 0.6863
Viability Fold Change [4]: 0.6484
Viability Fold Change [5]: 0.7943
Viability Fold Change [6]: 0.721
